Test results published in patent publication US20260297085A1, “1 H-PYRROLO[2,3-B]PYRIDIN-4-YL]-2-OXOPYRROLIDINE-3-CARBONITRILE DERIVATIVES AS TYROSINE KINASE 2 (TYK2) INHIBITORS FOR THE TREATMENT OF INFLAMMATORY DISEASES” (BIOGEN MA INC., priority 2023, published 2026).
Structures can show the parent of a compound that is named as a salt.

How the values were obtained:
[1] = target: T1, human JAK2 kinase domain (JH1) (Homo sapiens, UniProt O60674); experiment: JH1 biochemical assay for JAK2 (ADP-Glo kinase assay, recombinant JH1 catalytic domain, JAK3-974 peptide, 15 μM ATP)
T1 construct: recombinantly generated catalytic kinase (also known as JH1) domain of human JAK1, JAK2, JAK3 and TYK2
T1 sequence (O60674 849-1124 limits assumed): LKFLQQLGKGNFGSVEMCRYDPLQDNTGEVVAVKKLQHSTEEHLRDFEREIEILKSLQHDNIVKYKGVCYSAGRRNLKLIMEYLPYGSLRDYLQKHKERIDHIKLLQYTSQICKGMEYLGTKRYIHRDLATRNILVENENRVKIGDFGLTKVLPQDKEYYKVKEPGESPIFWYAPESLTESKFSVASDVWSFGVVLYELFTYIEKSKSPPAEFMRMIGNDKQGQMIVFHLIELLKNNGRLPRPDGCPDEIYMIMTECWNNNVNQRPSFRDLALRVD
Experimental: (§1) Compounds of the disclosure were assessed for their ability to inhibit TYK2, JAK1, JAK2, and JAK3 activity. The inhibitory properties of the compounds of the disclosure described herein can be evidenced by testing in any one of the following protocols.
(§2) The kinase activity of recombinantly generated catalytic kinase (also known as JH1) domain of human JAK1, JAK2, JAK3 and TYK2 were evaluated in a plate-based assay using the ADP-Glo™ Kinase Assay platform. Specifically, 4 nM of recombinant JAK1 kinase domain is used to phosphorylate 50 μM of a JAK3-342 (sequence ALVDGYFRLTT) peptide in the presence of 35 μM ATP. Catalytic activities of recombinant JAK2, JAK3 and TYK2 kinase domain (0.2, 0.3 and 2 nM, respectively) are evaluated by the phosphorylation status of the JAK3-974 (50 μM; sequence LPLDKDYYVVR) peptide with the addition of ATP (15, 4 and 10 μM, respectively). The reactions proceed for 100 minutes and the catalytic activity is quantified by first depleting the unused ATP, converting the hydrolyzed ADP into ATP to generate luminescence in a luciferase reaction; which is the basis of the ADP-Glo platform. Compounds are tested at either 10 μM or 1 μM top concentration, 11 points of 3-fold dilution. The data is normalized and the percent activity versus log concentration of compound is fitted with a 4-parameter logistic model to generate a curve and an IC50 value.

[2] = target: T2, human JAK1 kinase domain (JH1) (Homo sapiens, UniProt P23458); experiment: JH1 biochemical assay for JAK1 (ADP-Glo kinase assay, recombinant JH1 catalytic domain, JAK3-342 peptide, 35 μM ATP)
T2 construct: recombinantly generated catalytic kinase (also known as JH1) domain of human JAK1, JAK2, JAK3 and TYK2
T2 sequence (P23458 875-1153 limits assumed): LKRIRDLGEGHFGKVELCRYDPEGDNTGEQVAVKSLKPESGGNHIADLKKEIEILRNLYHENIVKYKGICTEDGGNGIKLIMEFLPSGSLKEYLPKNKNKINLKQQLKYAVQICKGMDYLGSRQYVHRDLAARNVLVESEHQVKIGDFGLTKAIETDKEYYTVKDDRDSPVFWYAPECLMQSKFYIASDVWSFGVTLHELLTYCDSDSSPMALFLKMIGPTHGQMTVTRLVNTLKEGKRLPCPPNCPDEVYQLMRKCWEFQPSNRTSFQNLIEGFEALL
Experimental: as §1, §2

[3] = target: T3, human TYK2 kinase domain (JH1) (Homo sapiens, UniProt P29597); experiment: JH1 biochemical assay for TYK2 (ADP-Glo kinase assay, recombinant JH1 catalytic domain, JAK3-974 peptide, 10 μM ATP)
T3 construct: recombinantly generated catalytic kinase (also known as JH1) domain of human JAK1, JAK2, JAK3 and TYK2
T3 sequence (P29597 897-1176 limits assumed): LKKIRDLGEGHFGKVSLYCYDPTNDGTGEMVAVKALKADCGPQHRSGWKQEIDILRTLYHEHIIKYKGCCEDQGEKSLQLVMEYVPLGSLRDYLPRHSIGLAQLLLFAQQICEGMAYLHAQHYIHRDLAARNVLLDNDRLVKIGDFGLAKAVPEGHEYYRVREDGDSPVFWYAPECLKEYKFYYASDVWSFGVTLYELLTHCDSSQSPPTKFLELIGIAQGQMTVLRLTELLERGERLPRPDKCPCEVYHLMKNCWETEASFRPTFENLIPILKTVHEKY
Experimental: as §1, §2

[4] = target: T4, human JAK3 kinase domain (JH1) (Homo sapiens, UniProt P52333); experiment: JH1 biochemical assay for JAK3 (ADP-Glo kinase assay, recombinant JH1 catalytic domain, JAK3-974 peptide, 4 μM ATP)
T4 construct: recombinantly generated catalytic kinase (also known as JH1) domain of human JAK1, JAK2, JAK3 and TYK2
T4 sequence (P52333 822-1111 limits assumed): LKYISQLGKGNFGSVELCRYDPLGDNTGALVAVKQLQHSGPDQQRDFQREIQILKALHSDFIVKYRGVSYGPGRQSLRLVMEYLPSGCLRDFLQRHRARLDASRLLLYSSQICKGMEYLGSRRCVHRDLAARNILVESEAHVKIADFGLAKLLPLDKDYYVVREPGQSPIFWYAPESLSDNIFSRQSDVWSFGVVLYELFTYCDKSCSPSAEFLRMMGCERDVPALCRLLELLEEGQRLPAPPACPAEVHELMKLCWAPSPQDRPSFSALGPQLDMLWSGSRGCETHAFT
Experimental: as §1, §2

Row | Compound | IC50 ([1]; JH1 kinase domain, ADP-Glo) | IC50 ([2]; JH1 kinase domain, ADP-Glo) | IC50 ([3]; JH1 kinase domain, ADP-Glo) | IC50 ([4]; JH1 kinase domain, ADP-Glo) | IC50 ([1]; JAK2 JH1, ADP-Glo) | IC50 ([2]; JAK1 JH1, ADP-Glo) | IC50 ([3]; TYK2 JH1, ADP-Glo) | IC50 ([4]; JAK3 JH1, ADP-Glo)
1 | C[C@@H]1CN(c2ccnn3cc(-c4ccc(CO)cn4)cc23)C(=O)[C@]1(C#N)C1CC1 [Example 150, (3R,4S)-3-cyclopropyl-1-(6-(5-(hydroxymethyl)pyridin-2-yl)pyrrolo[1,2-b]pyridazin-4-yl)-4-methyl-2-oxopyrrolidine-3-carbonitrile trifluoroacetate] | 100 to 1000 nM | 100 to 1000 nM | 5 to 20 nM | 100 to 1000 nM |  |  |  | 
2 | C[C@@H]1CN(c2nc(-c3ncccc3F)cn3nccc23)C(=O)[C@]1(C#N)C1CC1 [Example 212, (3R,4S)-3-cyclopropyl-1-(6-(3-fluoropyridin-2-yl)pyrazolo[1,5-a]pyrazin-4-yl)-4-methyl-2-oxopyrrolidine-3-carbonitrile] | > 10000 nM | 1000 to 5000 nM | 50 to 100 nM | 1000 to 5000 nM |  |  |  | 
3 | C[C@@H]1CN(c2ccc3ncc(-c4cnn(C)c4)cn23)C(=O)[C@]1(C#N)C1CC1 [Example 283, (3R,4S)-3-cyclopropyl-4-methyl-1-(3-(1-methyl-1H-pyrazol-4-yl)pyrrolo[1,2-a]pyrimidin-6-yl)-2-oxopyrrolidine-3-carbonitrile] |  |  |  |  | > 10000 nM | > 10000 nM | > 100 nM | > 10000 nM
4 | Cc1nc(-c2cc3c(N4C[C@@H](C)[C@@](C#N)(C5CC5)C4=O)ccnn3c2)ccc1C#N [Example 119, 6-(4-((3R,4S)-3-cyano-3-cyclopropyl-4-methyl-2-oxopyrrolidin-1-yl)pyrrolo[1,2-b]pyridazin-6-yl)-2-methylnicotinonitrile trifluoroacetate] | 1000 to 5000 nM | 1000 to 5000 nM | 20 to 50 nM | 100 to 1000 nM |  |  |  | 
5 | C[C@@H]1CN(c2nc(-c3cccnc3OC(F)F)cn3nccc23)C(=O)[C@]1(C#N)C1CC1 [Example 256, (3R,4S)-3-cyclopropyl-1-(6-(2-(difluoromethoxy)pyridin-3-yl)pyrazolo[1,5-a]pyrazin-4-yl)-4-methyl-2-oxopyrrolidine-3-carbonitrile trifluoroacetate] |  |  |  |  | 1000 to 5000 nM | > 10000 nM | > 100 nM | 1000 to 5000 nM
6 | C[C@@H]1CN(c2ccnn3cc(-c4ncn(C)n4)cc23)C(=O)[C@]1(C#N)C1CC1 [Example 115, (3R,4S)-3-cyclopropyl-4-methyl-1-(6-(1-methyl-1H-1,2,4-triazol-3-yl)pyrrolo[1,2-b]pyridazin-4-yl)-2-oxopyrrolidine-3-carbonitrile trifluoroacetate] | > 10000 nM | > 10000 nM | > 100 nM | 5000 to 10000 nM |  |  |  | 
7 | COc1cc(-c2cc3c(N4C[C@@H](C)[C@@](C#N)(C5CC5)C4=O)ccnn3c2)c(F)cn1 [Example 94, (3R,4S)-3-cyclopropyl-1-(6-(5-fluoro-2-methoxypyridin-4-yl)pyrrolo[1,2-b]pyridazin-4-yl)-4-methyl-2-oxopyrrolidine-3-carbonitrile] | > 10000 nM | 1000 to 5000 nM | 20 to 50 nM | > 10000 nM |  |  |  | 
8 | Cn1cc(-c2cc3c(N4CC[C@](C#N)(C5CCC5)C4=O)ccnn3c2)cn1 (single isomer, unassigned) [Example 47] | 5000 to 10000 nM | > 10000 nM | > 100 nM | > 10000 nM |  |  |  | 
9 | CC[C@H]1CN(c2ccnn3cc(-c4cnn(C)c4)cc23)C(=O)[C@@]1(C#N)C1CC1 [Example 25, (3S,4R)-3-cyclopropyl-4-ethyl-1-(6-(1-methyl-1H-pyrazol-4-yl)pyrrolo[1,2-b]pyridazin-4-yl)-2-oxopyrrolidine-3-carbonitrile] | > 10000 nM | > 10000 nM | > 100 nM | > 10000 nM |  |  |  | 
10 | COc1cc(-c2cc3c(N4CC[C@](C#N)(C5CC5)C4=O)ccnn3c2)ccn1 [Example 13, (R)-3-cyclopropyl-1-(6-(2-methoxypyridin-4-yl)pyrrolo[1,2-b]pyridazin-4-yl)-2-oxopyrrolidine-3-carbonitrile] | > 10000 nM | 5000 to 10000 nM | > 100 nM | > 10000 nM |  |  |  | 
